Literature values, collected in patent US20210308030A1, “SYSTEM, METHODS AND KITS FOR DIAGNOSIS AND TREATMENT OF FEMALE PATTERN HAIR LOSS” (Follea International, priority 2020, published 2021).

Tests used:
FPHL patients = conditions: both 2% and 5% minoxidil

Structure (SMILES) | risk for adverse events (FPHL patients) | water solubility
Nc1cc(N2CCCCC2)nc(N)[n+]1[O-] [minoxidil] | low | –
O=c1c(-c2ccc(O)cc2)coc2cc(O)cc(O)c12 [genistein] | – | poor
O=c1c(-c2ccc(O)cc2)coc2cc(O)ccc12 [daidzein] | – | poor
